Experiments:
[1] = test system: BxPC-3 pancreatic cancer cell line; experiment: Cell survival by MTT assay; format: cell-based
Description: Thus, the effect of ALB-185357 (a dual inhibitor of HDAC and GSK3β) represents an additional synergism to that observed with the combination of individual agents.
BxPC-3 pancreatic cancer cells were cultured in the presence or absence of different doses of ALB-188540 or ALB-185643 for 72 and cell survival measured by MTT assay.

[2] = test system: MIA PaCa-2 pancreatic cancer cell line; experiment: Cell invasion in Matrigel Invasion Chambers; format: cell-based; conditions: MIA PaCa-2, Matrigel Invasion Chambers
Description: (§1) Cells were cultured in the presence or absence of different doses of ALB-185357 for 72 and protein levels measured by Western (FIG. 22A) and cell invasion measured in Matrigel Invasion Chambers (FIG. 22B).

KPC mice = experiment: Survival of KPC mice with pancreatic adenocarcinoma; format: in vivo; conditions: 5 mg/Kg ip 3 times per week from age 8 weeks until death
Description: KPC mice, which have Kras and p53 mutations and spontaneously develop pancreatic adenocarcinoma, were ip injected 3 times per week with 5 mg/Kg of ALB185357 from age 8 weeks until death.

[3] = test system: BT474 breast cancer cells; experiment: Cell survival by MTT assay; format: cell-based; conditions: BT474, 72
Description: (§2) Cells were cultured in the presence or absence of different doses of ALB-185357 for 72 and cell survival measured by MTT assay (FIGS. 17 and 18) or by counting cell number (FIG. 19).

[4] = test system: hepatocellular carcinoma HepG2 cells; experiment: Cell survival by MTT assay; format: cell-based; conditions: HepG2, 72
Description: as §2

[5] = test system: MIA PaCa-2 pancreatic cancer cell line; experiment: Western: EMT and cancer stemness markers; format: cell-based; conditions: MIA PaCa-2, 72
Description: as §1

[6] = test system: MIA PaCa-2 pancreatic cancer cell line; experiment: Apoptosis by DNA fragmentation; format: cell-based; conditions: MIA PaCa-2, 72
Description: Dashed lane represents the expected additive effect (Significance between expected additive effect and observed effect is achieved at 2.4 uM).
MIA PaCa-2 cells were cultured in the presence or absence of different doses of ALB-185357 for 72 and apoptosis assessed by measuring DNA fragmentation.
MIA PaCa-2 cells were cultured in the presence or absence of different doses of ALB-185357 or gemcitabine at the low dose of 1 ng/ml for 72 and apoptosis assessed by measuring DNA fragmentation.

[7] = test system: normal pancreatic ductal cells; experiment: Cell survival of normal cells by MTT assay; format: cell-based; conditions: 72
Description: Cells were cultured in the presence or absence of different doses of ALB-185357 for 72 and cell survival measured by MTT assay.

Raji lymphoma cells = experiment: Cell survival by counting cell number; format: cell-based; conditions: 72
Description: as §2

[8] = test system: MIA PaCa-2 pancreatic cancer cell line; experiment: Western: histone acetylation and GSK-3β phosphorylation/inhibition; format: cell-based; conditions: MIA PaCa-2, 72
Description: Cells were cultured in the presence or absence of different doses of ALB-185357 for 72 and protein levels measured by Western.

[9] = test system: MIA PaCa-2 pancreatic cancer cells; experiment: Cell survival with GSK3β inhibitor, HDAC inhibitor and combination; format: cell-based; conditions: FIGS. 5-7
Description: FIG. 7 depicts, in accordance with various embodiments of the invention, effect of combination of GSK3β inhibitor tideglusib and HDAC inhibitor Saha on cell survival in pancreatic cancer cells MIA PaCa-2.

pdx1-Cre-LSL-Kras mice = experiment: Mouse model of pancreatic cancer (pdx1-Cre-LSL-Kras) exposed to cigarette smoke: PanIN lesions and fibrosis; format: in vivo; conditions: Saha 50 mg/Kg 5 times per week, TDZD-8 4 mg/Kg 3 times per week, 6 weeks; compared to control group
Description: FIG. 2 depicts, in accordance with various embodiments of the invention, effect of HDAC inhibitor Saha (50 mg/Kg) and GSK3β inhibitor (4 mg/Kg) alone and in combination on reducing PanIN lesion formation.
FIG. 3 depicts, in accordance with various embodiments of the invention, effect of HDAC inhibitor Saha (50 mg/Kg) and GSK3β inhibitor (4 mg/Kg) alone and in combination on fibrosis.
The inventors used a mouse model of pancreatic cancer where an oncogene call mutant K-ras is expressed in the pancreas (pdx1-Cre-LSL-Kras). These mice were exposed to cigarette smoke for 6 weeks in smoking chambers. Groups of mice were injected with GSK3β inhibitor TDZD-8 (4 mg/Kg, 3 times per week) and/or HDAC inhibitor Saha (50 mg/Kg; 5 times per week) for 6 weeks.
The same effect was observed when measuring fibrosis with collagen staining. Fibrosis is a measure of cancer activity.

[10] = test system: MIA PaCa-2 pancreatic cancer cells; experiment: EMT markers (vimentin, Twist, Snail) in pancreatic cancer cells; format: cell-based; conditions: FIG. 4
Description: FIG. 4 depicts, in accordance with various embodiments of the invention, effect of HDAC, GSK3β inhibitions combined with gemcitabine on EMT in MIA PaCa-2 pancreatic cancer cells.
Inhibition of GSK3β induces up-regulation of EMT as shown by a measure of vimentin which is an accepted measurement for EMT (FIG. 4). This effect of GSK3β was prevented by the HDAC inhibitor Saha (FIG. 4). […] A combination of the two inhibitors with gemcitabine, a chemotherapeutic agent used in pancreatic cancer led to a complete inhibition of the EMT marker vimentin and its transcription factors (FIG. 4).

SMILES | concentration at which significance of the effect on cell survival was achieved ([1]; BxPC-3, 72 h, MTT) | effect on cell survival compared with combination of saha and tideglusib ([1]; BxPC-3, 72 h, same concentration) | cell survival (MTT) ([1]; BxPC-3, cultured 72 h) | cell invasion [2] | increase of mice survival (KPC mice) | survival of animals with advance pancreatic cancer (KPC mice) | cell survival (MTT) [3] | cell survival (MTT) [4] | expression of EMT markers N-cadherin and twist (Western) [5] | expression of cancer stemness marker Sox2 (Western) [5] | apoptosis (DNA fragmentation level) [6] | dose at which significance of apoptosis increase was achieved [6] | cell survival of normal cells (MTT) [7] | cell survival (cell numbers) (Raji lymphoma cells) | GSK-3β phosphorylation/inhibition (Western) [8] | histone acetylation (Western) [8] | cell survival [9] | formation of pancreatic intraepithelial neoplasia (PanIN) lesions (pdx1-Cre-LSL-Kras mice) | EMT marker vimentin [10] | transcription factors regulating EMT (Twist and Snail) [10]
COc1ccc(Nc2nnc(-c3ccc(C(=O)NO)cc3)o2)cc1 [ALB-185357] | 300 nM | greater than the combination | dose-dependently decreased cell survival | decreases the invasion | at least 50% | improves survival | dose-dependently decreases cell survival | dose-dependently decreases cell survival | decreases expression | decreases expression | dose-dependently increases apoptosis | 300 nM | does not affect cell survival | dose-dependently decreases cell survival | dose-dependently up-regulates | dose-dependently up-regulates |  |  |  | 
O=C(CCCCCCC(=O)Nc1ccccc1)NO [Saha, subcroylanilide hydroxamic acid] |  |  |  |  |  |  |  |  |  |  |  |  |  |  |  |  | dose-dependent effect | significantly decreased formation | prevented | inhibited
O=c1sn(-c2cccc3ccccc23)c(=O)n1Cc1ccccc1 [tideglusib, 4-Benzyl-2-(naphthalen-1-yl)-1,2,4-thiadiazolidine-3,5-dione] |  |  |  |  |  |  |  |  |  |  |  |  |  |  |  |  | dose-dependent effect |  |  | 
